# Results: paper PMC9500407, “Quantifying the transport of biologics across intestinal barrier models in real-time by fluorescent imaging” (Frontiers in Bioengineering and Biotechnology, 2022)
# Where two headings read alike, the source gives them in different places.
# Columns and labels:
# [1] = cited from earlier work
# From the text: page 15: Supplementary Table 4. Comparison of apparent permeability in chips using mono-and coculture tubules and Transwell system of 12 model drugs.
# [2] = cited from earlier work; remark: listed apart in the source
# From the text: page 17: Supplementary Table 5. Direct statistical comparison of drug transport in Transwells, mono-and coculture tubules of 12 model drugs using an unpaired t-test.
# [3] = test system: Caco-2 monolayers (Transwell); assay: Lucifer Yellow leakage after drug exposure, Transwell; details: 100 µM LY co-applied, after 2 h of exposure to 10 µM drug, Caco-2 Transwell
# [4] = test system: Caco-2:HT29-MTX E12 coculture tubules (chip); assay: Lucifer Yellow leakage after drug exposure, chip coculture; details: 100 µM LY co-applied, after 2 h of exposure to 10 µM drug
# [5] = test system: Caco-2 monoculture tubules (chip); assay: Lucifer Yellow leakage after drug exposure, chip monoculture; details: 100 µM LY co-applied, after 2 h of exposure to 10 µM drug
# [6] = test system: Caco-2 monolayers (Transwell); assay: In vitro drug absorption study, Transwell Caco-2 monolayer, Papp by LC-MS; details: Caco-2 Transwell, 19-21 days culture, apical pH 6.5 / basolateral pH 7.4 (TB, 10 mM HANKS/HBSS), 10 µM drug in 0.1% DMSO, 2 h, 37°C, static, mean ± SEM, at least three biological replicates
# [7] = test system: Caco-2:HT29-MTX E12 coculture tubules (chip); assay: In vitro drug absorption study, OrganoPlate chip coculture tubules, Papp by LC-MS; details: OrganoPlate Caco-2:HT29-MTX E12 6:1 coculture tubules, day 4, A-B, apical pH 6.5 / basolateral pH 7.4, 10 µM drug in 0.1% DMSO, 2 h, 37°C, constant flow, mean ± SEM, at least three biological replicates
# [8] = test system: Caco-2 monoculture tubules (chip); assay: In vitro drug absorption study, OrganoPlate chip monoculture tubules, Papp by LC-MS; details: OrganoPlate Caco-2 monoculture tubules, day 4, A-B, apical pH 6.5 / basolateral pH 7.4, 10 µM drug in 0.1% DMSO, 2 h, 37°C, constant flow, mean ± SEM, at least three biological replicates
# [9] = human, ref Takenaka et al., 2016
# [10] = known route of the drug, no reference given
Structure (SMILES),FA in human % (fraction absorbed in human) ([1]; in vivo),Transport route [2],Lucifer Yellow leakage (%) Transwell [3],Lucifer Yellow leakage (%) Chip Caco-2:HT29-MTX E12 [4],Lucifer Yellow leakage (%) Chip Caco-2 [5],TW Caco-2 Papp (apparent permeability coefficient from A B) [6],Chip Caco-2:HT29-MTX E12 Papp (apparent permeability coefficient from A B) [7],Chip Caco-2 Papp (apparent permeability coefficient from A B) [8],"FA in human % (fraction absorbed in human) [1, 9]","FA in human % (fraction absorbed in human) ([1]; human, ref Youhanna and Lauschke, 2021)",Chip Caco-2:HT29-MTX E12 Papp (apparent permeability coefficient from A B) ([7]; listed as Erythromycin),"Transport route [2, 10]"
NC(=O)N1c2ccccc2C=Cc2ccccc21 [Carbamazepine],100%,Transcellular,0.02%,0.01%,0.02%,204.43± 9.20 × 10-6 cm/sec,140.04 ± 6.25 × 10-6 cm/sec,0.00021399 cm/s,–,–,–,–
CN/C(=N/CCSCc1nc[nH]c1C)NC#N [Cimetidine],–,Paracellular,0.03%,0.02%,0.03%,5.08± 1.39 × 10^-6 cm/sec,11.87 ± 3.41 × 10^-6 cm/sec,9.79± 3.41 × 10^-6 cm/sec,62%,–,–,–
CC[C@H]1OC(=O)[C@H](C)[C@@H](O[C@H]2C[C@@](C)(OC)[C@@H](O)[C@H](C)O2)[C@H](C)[C@@H](O[C@@H]2O[C@H](C)C[C@H](N(C)C)[C@H]2O)[C@](C)(O)C[C@@H](C)C(=O)[C@H](C)[C@@H](O)[C@]1(C)O [Erythromicin],–,–,0.03%,0.01%,0.04%,1.2e-06 cm/s,0.99 ± 0.32 × 10^-6 cm/sec,1.33e-06 cm/s,–,35%,9.9e-07 cm/s,–
CN(C)C(=O)C(CCN1CCC(O)(c2ccc(Cl)cc2)CC1)(c1ccccc1)c1ccccc1 [Loperamide],–,–,0.02%,0.02%,0.68%,58.60± 8.62 × 10^-6 cm/sec,2.75 ± 1.13 × 10^-6 cm/sec,11.03± 1.62 × 10^-6 cm/sec,–,–,–,–
COCCc1ccc(OCC(O)CNC(C)C)cc1 (stereo not shown) [Metoprolol],–,–,0.02%,0.09%,0.02%,47.63± 5.44 × 10-6 cm/sec,44.99 ± 1.05 × 10-6 cm/sec,17.67± 4.98 × 10-6 cm/sec,–,–,–,–
CC(C)NCC(O)COc1cccc2ccccc12 (stereo not shown) [Propranolol],–,–,0.02%,0.03%,0.03%,101.68± 23.00 × 10-6 cm/sec,86.05 ± 21.67 × 10-6 cm/sec,71.42± 5.08 × 10-6 cm/sec,–,–,–,–
C=C[C@H]1C[N@@]2CC[C@H]1C[C@@H]2[C@@H](O)c1ccnc2ccc(OC)cc12 [Quinidine],–,–,–,–,–,–,–,–,–,–,–,Transcellular
CNC(=C[N+](=O)[O-])NCCSCc1ccc(CN(C)C)o1 [Rantidine],–,–,0.02%,0.01%,0.02%,3.22± 0.93 × 10^-6 cm/sec,2.29 ± 0.27 × 10^-6 cm/sec,1.80± 0.27 × 10^-6 cm/sec,50%,–,–,Paracellular
CC(=O)CC(c1ccccc1)c1c(O)c2ccccc2oc1=O (stereo not shown) [Warfarin],–,–,0.02%,–,–,0.00024341 cm/s,0.00030039 cm/s,160.97± 40.49 × 10-6 cm/sec,–,–,–,–
